In patent US7491819B1 (priority 2004, dated 2009) one finds IC50 data, which are given here for 15 compounds.

The target of one experiment is T1, HIV-integrase (Human immunodeficiency virus type 1 group M subtype B, UniProt P12497).
T1 construct: Recombinant integrase (0.26 ng) was incubated with the beads
Briefly: HIV-Integrase Inhibition Activity (SPA bead strand-transfer assay). It is filed as biochemical. To be noted: Table 1; read-out: Activity (HIV-integrase inhibition, IC50 class). The method, boiled down:
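Biotin-labelled substrate DNA (5 pmole) bound to streptavidin SPA beads, preloaded with recombinant integrase (0.26 ng) for 90 min at 37° C, then washed. Inhibitors and 0.1 fmol P33-labelled target DNA added; reaction stopped with 10 mM EDTA. Integration read as scintillation CPM.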
In the case of `CC1(C)OCCn2c1nc(C(=O)NCc1cccc3c1OCCCO3)c(O)c2=O` [Example 268, Pyrimido[2,1-c][1,4]oxazine-2-carboxamide, N-[(3,4-dihydro-2H-1,5-benzodioxepin-6-yl)methyl]-4,6,7,9-tetrahydro-3-hydroxy-9,9-dimethyl-4-oxo-], the IC50 was 2 to 100 nM. Still for that read-out and setting: the figure for `Cc1ccc(C)c(CNC(=O)c2nc3n(c(=O)c2O)CCOC3(C)C)c1` [Example 269, Pyrimido[2,1-c][1,4]oxazine-2-carboxamide, N-[(2,5-dimethylphenyl)methyl]-4,6,7,9-tetrahydro-3-hydroxy-9,9-dimethyl-4-oxo-] is 2 to 100 nM; for `CC1(C)OCCn2c1nc(C(=O)NCc1ccc(Cl)cc1Cl)c(O)c2=O` [Example 271, Pyrimido[2,1-c][1,4]oxazine-2-carboxamide, N-[(2,4-dichlorophenyl)methyl]-4,6,7,9-tetrahydro-3-hydroxy-9,9-dimethyl-4-oxo-] it is 2 to 100 nM; for `Cc1cc(Cl)ccc1CNC(=O)c1nc2n(c(=O)c1O)CCOC2(C)C` [Example 272, Pyrimido[2,1-c][1,4]oxazine-2-carboxamide, N-[(4-chloro-2-methylphenyl)methyl]-4,6,7,9-tetrahydro-3-hydroxy-9,9-dimethyl-4-oxo-] it is 2 to 100 nM. In the case of `CC1(C)OCCn2c1nc(C(=O)NCc1c(F)cccc1Cl)c(O)c2=O` [Example 273, Pyrimido[2,1-c][1,4]oxazine-2-carboxamide, N-[(2-chloro-6-fluorophenyl)methyl]-4,6,7,9-tetrahydro-3-hydroxy-9,9-dimethyl-4-oxo-], the IC50 was 2 to 100 nM.

`Cc1ccc(Cl)c(CNC(=O)c2nc3n(c(=O)c2O)CCOC3(C)C)c1F` [Example 274, Pyrimido[2,1-c][1,4]oxazine-2-carboxamide, N-[(6-chloro-2-fluoro-3-methylphenyl)methyl]-4,6,7,9-tetrahydro-3-hydroxy-9,9-dimethyl-4-oxo-]: the IC50 is 2 to 100 nM.

For `Cc1ccc(F)c(CNC(=O)c2nc3n(c(=O)c2O)CCOC3(C)C)c1F` [Example 275, Pyrimido[2,1-c][1,4]oxazine-2-carboxamide, N-[(2,6-difluoro-3-methylphenyl)methyl]-4,6,7,9-tetrahydro-3-hydroxy-9,9-dimethyl-4-oxo-], the IC50 was 2 to 100 nM. Turning to `Cc1ccc(CNC(=O)c2nc3n(c(=O)c2O)CCOC3(C)C)c(F)c1F` [Example 276, Pyrimido[2,1-c][1, 4]oxazine-2-carboxamide, N-[(2,3-difluoro-4-methylphenyl)methyl]-4,6,7,9-tetrahydro-3-hydroxy-9,9-dimethyl-4-oxo-], the IC50 lay in the range of 2 to 100 nM. On the same count and under the same terms, next, `CC1(C)OCCn2c1nc(C(=O)NCc1ccc(Cl)cc1F)c(O)c2=O` [Example 277, Pyrimido[2,1-c][1,4]oxazine-2-carboxamide, N-[(4-chloro-2-fluorophenyl)methyl]-4,6,7,9-tetrahydro-3-hydroxy-9,9-dimethyl-4-oxo-]: 2 to 100 nM; `Cc1ccc(F)c(CNC(=O)c2nc3n(c(=O)c2O)CCOC3(C)C)c1Cl` [Example 278, Pyrimido[2,1-c][1,4]oxazine-2-carboxamide, N-[(2-chloro-6-fluoro-3-methylphenyl)methyl]-4,6,7,9-tetrahydro-3-hydroxy-9,9-dimethyl-4-oxo-]: 2 to 100 nM. Still for that read-out and setting: next, `Cn1ccc2c(CNC(=O)c3nc4n(c(=O)c3O)CCOC4(C)C)cccc21` [Example 279, Pyrimido[2,1-c][1,4]oxazine-2-carboxamide, 4,6,7,9-tetrahydro-3-hydroxy-9,9-dimethyl-N-[(1-methyl-1H-indol-4-yl)methyl]-4-oxo-]: 2 to 100 nM; `CC1(C)OCCCn2c1nc(C(=O)NCc1ccc(F)cc1N1CCC1=O)c(O)c2=O` [Example 280, 6H-Pyrimido[2,1-c][1,4]oxazepine-2-carboxamide, N-[[4-fluoro-2-(2-oxo-1-azetidinyl)phenyl]methyl]-4,7,8,10-tetrahydro-3-hydroxy-10,10-dimethyl-4-oxo-]: 2 to 100 nM. The same measure, in the same setting: the figure for `COP(=O)(OC)c1cc(F)ccc1CNC(=O)c1nc2n(c(=O)c1O)CCOC2(C)C` [Example 281, Phosphonic acid, [5-fluoro-2-[[[(4,6,7,9-tetrahydro-3-hydroxy-9,9-dimethyl-4-oxopyrimido[2,1-c][1,4]oxazin-2-yl)carbonyl]amino]methyl]phenyl]-, dimethyl ester] is 2 to 100 nM; for `CCOP(=O)(O)c1cc(F)ccc1CNC(=O)c1nc2n(c(=O)c1O)CCOC2(C)C` [Example 282, Phosphonic acid, [5-fluoro-2-[[[(4,6,7,9-tetrahydro-3-hydroxy-9,9-dimethyl-4-oxopyrimido[2,1-c][1,4]oxazin-2-yl)carbonyl]amino]methyl]phenyl]-, monoethyl ester] it is 2 to 100 nM.

The experiment is the same for the next values; noted with them: Table 2a; read-out: HIV-Integrase Inhibition Activity.
`CC1(C)OCCn2c1nc(C(=O)NCc1ccc(F)cc1SCCO)c(O)c2=O` [Example 313, Pyrimido[2,1-c][1,4]oxazine-2-carboxamide, N-[[4-fluoro-2-[(2-hydroxyethyl)thio]phenyl]methyl]-4,6,7,9-tetrahydro-3-hydroxy-9,9-dimethyl-4-oxo-]: the IC50 lay in the range of 2 to 100 nM.
